Laboratory results as given in US20020165213A1, “Estrogen induced neural stem cell increase” (Neurostasis, Inc., priority 2001, published 2002).

Legend:
SVZ proliferating cells = conditions: literature (Alonso, 2000; Tanapat et al., 1999); cited from earlier work
[1] = test system: proliferating cells in the dentate gyrus; conditions: literature (Alonso, 2000; Tanapat et al., 1999); cited from earlier work
[2] = test system: adult neural stem cells (adult subventricular zone); experiment: Estradiol on adult neural stem cell cultures: secondary spheres from one single sphere; type: cell-based
Method: (§1) To determine if estradiol, the main form of estrogen, increases the number of neural stem cells, the effect of estradiol on neural stem cell cultures was examined. Primary neural stem cells (from embryonic day 14 or adult subventricular zone) were cultured in EGF for seven days to make neurospheres. These primary neurospheres were then dissociated and re-plated in EGF to make pass 1 neurospheres. Pass 1 neurospheres, either embryonic or adult, were dissociated and plated (50,000 cell/ml) in culture medium containing EGF alone or EGF+4 nM estradiol. The culture was allowed to progress for seven days. To determine the number of neural stem cells in each culture, single spheres (15-20 per experiment) were dissociated and plated in single wells of a 96 well plate in culture medium containing EGF only. After 7 days, the number of spheres which came from one single sphere was counted. The following data represent the results from 15-20 replicates.

[3] = test system: embryonic neural stem cells (embryonic day 14); experiment: Estradiol on embryonic neural stem cell cultures: secondary spheres from one single sphere; type: cell-based
Method: as §1

[4] = EGF+4 nM estradiol versus EGF alone

Row | Compound | cell proliferation / mitotic activity in the SVZ (SVZ proliferating cells) | cell proliferation in the dentate gyrus [1] | # secondary spheres from one single sphere ([2]; Adult pass 1 neurospheres, EGF+4 nM estradiol, seven days, single spheres re-plated in EGF only, counted after 7 days, 15-20 replicates) | increase in the number of adult neural stem cells in response to estradiol [2, 4] | increase in the number of embryonic neural stem cells in response to estradiol [3, 4] | # secondary spheres from one single sphere ([3]; Embryo pass 1 neurospheres, EGF+4 nM estradiol, seven days, single spheres re-plated in EGF only, counted after 7 days, 15-20 replicates)
1 | C[C@]12C[C@H](O)[C@H]3[C@@H](CCC4=CC(=O)CC[C@@]43C)[C@@H]1CC[C@@H]2C(=O)CO [corticosterone] | no effect | dramatically decreases cell proliferation | – | – | – | –
2 | C[C@]12CC[C@@H]3c4ccc(O)cc4CC[C@H]3[C@@H]1CC[C@@H]2O [estradiol] | – | – | 78±11 | 35% | 150% | 104±15
3 | Estrogen | no mitotic activity | stimulate proliferation | – | – | – | –
